In patent US7947688B2, “N-[3-(3-substituted-pyrazolo[1,5-a]pyrimidin-7-yl)phenyl]-sulfonamides, and compositions, and methods related thereto” (Ferrer Internacional, S.A., priority 2003, dated 2011):

Assays:
male CD1 mice = assay: Predictive sedation-hypnosis test in mice (motor activity, crossings); type: in vivo; conditions: single equimolecular intraperitoneal dose, crossings over 30 min after dosing (first 5 min discarded) versus control
Procedure: • In vivo determination of predictive sedative-hypnotic action.
The in vivo effects of these compounds were assessed by a predictive sedation-hypnosis test in mice (D. J. Sanger et al., Eur. J. Pharmacol., 313, 35-42, 1996; and G. Griebel et al., Psychopharmacology, 146, 205-213, 1999). Groups of 5-8 male CD1 mice, weighing 22-26 g at the time of test, were used. The test compounds were administered in single equimolecular intraperitoneal doses, suspended in 0.25% agar with one drop of Tween in a volume of 10 ml/kg. Control animals received the vehicle alone. Using an Actisystem DAS16 (Panlab, S. L., Spain) the crossings (number of counts) were recorded for each mouse at 5-min intervals during a period of 30 minutes after dosing. The inhibition percentage of crossings of treated animals versus control animals (the first 5 min were discarded) was calculated.

CN(c1cccc(-c2ccnc3c(C(=O)c4cccs4)cnn23)c1)S(C)(=O)=O [Example 3, N-methyl-N-{3-[3-(thiophene-2-carbonyl)-pyrazolo[1,5-a]pyrimidin-7-yl]-phenyl}-methanesulfonamide]
% Motor Activity Inhibition (male CD1 mice): 93.58%
melting point: 169 to 170 °C
